Experiment [1] deals with cultured human endothelial cells. To be noted: cited from earlier work.
The next experiment has as its system phospholipase C (PLC). To be noted: cited from earlier work.
Experiment [2] concerns chick embryo chorioallantoic membranes (CAM). To be noted: cited from earlier work.
Another experiment deals with Smad3 mutant mice. In words: Colorectal tumor development in Smad3 mutant mice given antibiotics in drinking water. It counts as in vivo. The procedure: I. Orally-delivered aminoglycosides reduce development of colon cancer in animal models predisposed to colon neoplasia. Smad3 mutant and APC/MIN mice are fed on a standard laboratory diet, with aminoglycoside antibiotics added to the water. […] Metronidazole was diluted in sterile drinking water to a final concentration of 0.5 mg/ml. The same concentrations are used for either combined or separate drug trials.
Smad3 mutant mice are maintained in 129Sv strain; APC/MIN mice are maintained in C57BL/6J. Both Smad3 mutant and APC/MIN mice are started on antibiotics at 5 weeks of age (range: 4-6 weeks). Mice are monitored and scored for survival and visible rectal tumors. Mice are sacrificed when showing severe distress (typically rectal prolapse with significant dehydration,. hypokinesis, cachexia). At sacrifice mice are dissected and their overall state assessed. Large intestines were harvested, opened longitudinally, and tumor number, location, and size recorded.

A further experiment relates to colorectal adenomas. As to the kind of experiment: Double-blind, placebo-controlled trial of colorectal adenomas in patients with previous colorectal cancer. In kind it is in vivo, human. Particulars: daily use of 1 or 2 g, patients with a history of colorectal cancer. The source says:
III. Orally-delivered aminoglycosides reduce development of colorectal adenomas in patients with previous colorectal cancer. […] We determine the proportion of patients with adenomas, the number of recurrent adenomas, and the time to the development of adenoma between randomization and subsequent colonoscopic examinations. Relative risks are adjusted for age, sex, cancer stage, the number of colonoscopic examinations, and the time to first colonoscopy.

A further experiment deals with colorectal polyps. In words: Double-blind, placebo-controlled study of colorectal polyps in patients with familial adenomatous polyposis. It counts as in vivo, human. Particulars: 1 or 2 g/day orally, after six months, change from base line. The procedure: II. […] All patients undergo endoscopy at the beginning and end of the study. The number and size of polyps is determined from photographs and videotapes; the response to treatment is expressed as the mean percent change from base line.

Experiment [3] relates to cultured angiogenin-secreting tumor cells. To be noted: injected, mice; cited from earlier work.
For experiment [4], the system named is azoxymethane (AOM) and 1,2-dimethyl hydrazine (DMH)-induced colon cancers. Particulars: AOM and DMH chemical carcinogenesis models; cited from earlier work.

`COc1ccc2c(c1)CC[C@@H]1[C@@H]2CC[C@]2(C)[C@@H](NCCCCCCN3C(=O)C=CC3=O)CC[C@@H]12` [U-73122]: in experiment [1], the angiogenin-induced cell proliferation result is “similarly inhibited angiogenin-induced cell proliferation and angiogenesis”. The PLC inhibition entry in the experiment with phospholipase C (PLC) is “PLC inhibitor”. The “angiogenin-induced angiogenesis / anti-angiogenic activity” value in experiment [2] was “similarly inhibited angiogenin-induced cell proliferation and angiogenesis”.
`NCC[C@H](O)C(=O)N[C@@H]1C[C@H](N)[C@@H](O[C@H]2O[C@H](CN)[C@@H](O)[C@H](O)[C@H]2O)[C@H](O)[C@H]1O[C@H]1O[C@H](CO)[C@@H](O)[C@H](N)[C@H]1O` [amikacin]: in experiment [2], the “angiogenin-induced angiogenesis / anti-angiogenic activity” value is “lack anti-angiogenic activity”.
For `Cc1ncc([N+](=O)[O-])n1CCO` [metronidazole], in the experiment with Smad3 mutant mice (0.5 mg/ml in drinking water), the “tumor development compared with non-treated controls” value was “not significantly different from non-treated controls”.
With `NC[C@@H]1O[C@H](O[C@H]2[C@@H](O)[C@H](O[C@@H]3[C@@H](O)[C@H](N)C[C@H](N)[C@H]3O[C@H]3O[C@H](CO)[C@@H](O)[C@H](O)[C@H]3N)O[C@@H]2CO)[C@H](N)[C@@H](O)[C@@H]1O` [paromomycin], in the experiment with colorectal adenomas, the “occurrence of new colorectal adenomas” value is reported as “decreases the occurrence of new colorectal adenomas”. In the experiment with colorectal polyps, the “reduction in the mean number of colorectal polyps” value is recorded as roughly 30% and the “reduction in the polyp burden (the sum of polyp diameters)” value is roughly 30%. Also, in experiment [2], the “angiogenin-induced angiogenesis / anti-angiogenic activity” value is “lack anti-angiogenic activity”.
Regarding `[H]/N=C(/N)N[C@H]1[C@H](O)[C@@H](O)[C@H](O[C@@H]2O[C@@H](C)[C@](O)(C=O)[C@H]2O[C@@H]2O[C@@H](CO)[C@H](O)[C@@H](O)[C@@H]2NC)[C@@H](N/C(N)=N\[H])[C@@H]1O` [streptomycin], the “angiogenin-induced angiogenesis / anti-angiogenic activity” value in experiment [2] is recorded as “lack anti-angiogenic activity”.
On to gentamicin, for which, in experiment [2], the “angiogenin-induced angiogenesis / anti-angiogenic activity” value is on record as “lack anti-angiogenic activity”.
neomycin: the angiogenin-induced cell proliferation result in experiment [1] was “able to reduce angiogenin-induced cell proliferation and angiogenesis”. Besides, the “occurrence of new colorectal adenomas” value in the experiment on colorectal adenomas is recorded as “decreases the occurrence of new colorectal adenomas”. In addition, the “mice in which development of tumors was prevented” value with Smad3 mutant mice (oral treatment, at 24 weeks, 9 of 10 untreated mice developed colorectal tumors) was 11 of 12. In experiment [3], the “growth of transplanted angiogenin-secreting tumor cells” value is on record as “able to reduce growth”. Further, in the experiment with colorectal polyps, the “reduction in the mean number of colorectal polyps” value is roughly 30% and the “reduction in the polyp burden (the sum of polyp diameters)” value is given as roughly 30%. Besides, in the experiment with phospholipase C (PLC), the PLC inhibition entry is recorded as “inhibits PLC”. In experiment [2], the “angiogenin-induced angiogenesis / anti-angiogenic activity” value was “able to reduce angiogenin-induced cell proliferation and angiogenesis”. The “incidence of colon adenocarcinomas” value in experiment [4] is listed as “may actually increase the incidence of colon adenocarcinomas”.

Values taken from patent US6846807B1, “Colorectal neoplasia prophylaxis” (Board of Regents, The University of Texas System, priority 2003, dated 2005).
